Source: patent US4638009A, “Derivatives of 3-pyrrolidinopropiophenone and a process for preparation thereof” (Hokuriku Pharmaceutical Co., Ltd., priority 1984, dated 1987)
Counter-ions that a name gives are not always drawn.

Legend:
[1] = system: nicotine-induced convulsion; test: Activity on nicotine-induced convulsion; format: in vivo, male ddY mice; settings: compound 25 mg/kg p.o., nicotine tartrate 3 mg/kg i.v. 15 min later, n=5; for mortality: dead animals because of the convulsions
Experimental: 2. Activity on nicotine-induced convulsion
Male ddY mice 5 weeks old were used with 5 animals in a group. The compounds were administered per os at a dose of 25 mg/kg. After 15 minutes of drug administration, Nicotine tartarate was administered intravenously at an amount of 3 mg/kg and the tonic convulsions and dead animals because of the convulsions have been measured. The effect of the compounds has been indicated by percentage of appearance of tonic convulsion and the mortality.

[2] = system: oxotremorine-induced tremor; test: Effect on oxotremorine-induced tremor; format: in vivo, male ddY mice; settings: 100 mg/kg p.o., oxotremorine 1 mg/kg i.p. 15 min later, 0=absent to 5=lack of righting reflex; for tremor score, 5 min: passage of time 5 min; for tremor score, 10 min: passage of time 10 min; for tremor score, 15 min: passage of time 15 min; for tremor score, 20 min: passage of time 20 min; for tremor score, 30 min: passage of time 30 min
Experimental: 3. Effect on oxotremorine-induced tumor
Male ddY mice 5 weeks old were used with 5 animals in a group. The compounds were administrated per os at a dose of 100 mg/kg and after 15 minutes oxotremorine was intraperitoneally administered at dose of 1 mg/kg. The strength of the induced tremor was observed by the method of Suzuki et al (Folia Pharmacologica Japonica, 83, 127(1983) and scored up with passage of time as follows:
4=severe, 5=lack of righting reflex.

in vivo = settings: mouse
Experimental: Male ddY mice 5 weeks old were used with 5 animals at a group. The compounds were administrated orally with each dosage. LD50 was determined by the Probit method from dead animals dying within 7 days.

[3] = versus Tolperisone; cited from earlier work
[4] = cited from earlier work; for side effect (prior art): in vivo

| Compound | appearance of tonic convulsion [1] [%] | mortality [1] [%] | tremor score, 5 min [2] | tremor score, 10 min [2] | tremor score, 15 min [2] | tremor score, 20 min [2] | tremor score, 30 min [2] | LD50 at 168 h (in vivo; oral, deaths within 7 days, Probit method, n=5 per group) [mg/kg] | muscle relaxation activity of Eperisone (prior art) [3] | toxicity (prior art) ([4]; Eperisone versus Tolperisone) | side effect (prior art) [4] | LD50 at 168 h (in vivo; po) [mg/kg] |
| --- | --- | --- | --- | --- | --- | --- | --- | --- | --- | --- | --- | --- |
| CCCCc1ccc(C(=O)C(C)CN2CCCC2)cc1 (stereo not drawn) [Compound 1, 4'-n-Butyl-2-methyl-3-pyrrolidinopropiophenone] | 20 | 40 | 0 | 0.4 | 0.4 | 0.9 | 0.8 | 520 |  |  |  |  |
| CCc1ccc(C(=O)C(C)CN2CCCCC2)cc1 (stereo not drawn) [Eperisone] |  |  |  |  |  |  |  |  | improvement in muscle relaxation activity | just the same strong toxicity as Tolperisone | hepatic and kidney function disorder |  |
| CCc1ccc(C(=O)C(C)CN2CCCCC2)cc1 (stereo not drawn) [Reference Drug, Eperisone hydrochloride, reference compound] | 60 | 100 | 0 | 0.4 | 0.3 | 0.2 | 0 |  |  |  |  | 332 |
| Cc1ccc(C(=O)C(C)CN2CCCCC2)cc1 (stereo not drawn) [Tolperisone] |  |  |  |  |  |  |  |  |  |  | hepatic functional disorder |  |
| CCc1ccc(C(=O)C(C)CN2CCCC2)cc1 (stereo not drawn) [Compound 2, 4'-Ethyl-2-methyl-3-pyrrolidinopropiophenone] | 40 | 60 | 0 | 0.4 | 0.3 | 0.4 | 0.4 |  |  |  |  |  |
